We go through one molecule from patent US20240226020A1 (AMGEN INC., priority 2021, published 2024).

The term AUC(0-inf) denotes the area under the concentration-time curve extrapolated to infinity.

Data set [1] is described as follows: Water dispersion study: pharmacokinetics of 8×120 mg tablets versus tablets dispersed in water. The format is in vivo, healthy subjects. As to conditions: plasma; for AUC(0-inf): human, oral, 960 mg, Geometric mean sotorasib AUCinf. The method, then:
Doses were administered orally on Days 1 and 4 during the mornings after an overnight fast of at least 10 hours. A total of 13 subjects entered the study (7 subjects receiving treatment in the sequences of Treatment A followed by Treatment B; and 6 subjects receiving treatment in the sequences of Treatment B followed by Treatment A). Data for all subjects was included in the pharmacokinetic (PK) and safety analyses. […] PK parameters including AUClast, AUCinf, and Cmax were estimated and compared between Treatment A and Treatment B. The natural log-transformed PK parameters were analyzed using a mixed model. The model included treat, period, and sequence as fixed effect and subject nested within a sequence as a random effect. […] Additionally, the pooled estimate (across all treatments) of the within-subject coefficient of variation was calculated, and residual plots were produced to assess the adequacy of the model(s) fitted.

Data set [2] in a line: Water dispersion study: safety and tolerability. In kind it is in vivo. The conditions noted are these: healthy subjects. The method, then: Doses were administered orally on Days 1 and 4 during the mornings after an overnight fast of at least 10 hours. A total of 13 subjects entered the study (7 subjects receiving treatment in the sequences of Treatment A followed by Treatment B; and 6 subjects receiving treatment in the sequences of Treatment B followed by Treatment A). Data for all subjects was included in the pharmacokinetic (PK) and safety analyses. […] All events resolved by the end of the study.

Data set [3] in a line: Compressibility (tablet solid fraction as a function of compaction pressure). In kind it is physicochemical. How it is done:
(§1) After compression, tablets were measured for their ejected weight, thickness and diameter. Tablets were then stored for minimally 48 hours to allow for complete viscoelastic relaxation. The recovered dimensions were measured prior to diametrical compression testing performed using the HB compaction simulator operating at a constant loading rate of 5 mm/min. The force required to cause diametrical failure was recorded and used to compute radial tensile strength values.
Compressibility: The ability of a powder bed to be reduced in volume due to the application of an applied stress gives an indication of powder compressibility. This behavior is described in terms of tablet solid fraction as a function of compaction pressure (see Table 38). Interpretation of the data considers the change in solid fraction between two pressure conditions. The increased difference in SF at a high pressure and a low pressure is indicative of increased compressibility of the blend. […] Therefore, a 3:1 plastic to brittle diluent ratio, e.g., a 3:1 Avicel PH102 to lactose ratio, is preferred.

Data set [4] can be described thus: Compactibility and tabletability (radial tensile strength, compression pressure). The format is physicochemical. The method, then:
as §1
Compactibility and Tabletability: The ability of a powder bed to cohere into or to form a compact gives an indication of powder compactibility. This behavior is described as a plot of tablet radial tensile strength (RTS) as a function of tablet solid fraction (SF) (FIG. 12A). For understanding fundamental material behavior, it is advantageous to compare materials at similar levels of solid fraction. […] The compactibility of all three placebo blends can be classified as “low” because each blend has been previously dry granulated. Tabletability is another relevant parameter which is useful in identifying the pressure needed to achieve a specific tablet hardness or tensile strength. This behavior is described as a plot of tablet radial tensile strength (RTS) as a function of compaction pressure (FIG. 12B).

Data set [5] deals with extracellular signal-regulated kinase (ERK). The conditions noted are these: preclinical studies; cited from earlier work.

“Also recorded” adds a separate entry of the source.

For `C=CC(=O)N1CCN(c2nc(=O)n(-c3c(C)ccnc3C(C)C)c3nc(-c4c(O)cccc4F)c(F)cc23)[C@@H](C)C1` (atropisomer, axis not shown; (M)) [Sotorasib, 6-fluoro-7-(2-fluoro-6-hydroxyphenyl)-(1M)-1-[4-methyl-2-(propan-2-yl)pyridin-3-yl]-4-[(2S)-2-methyl-4-(prop-2-enoyl)piperazin-1-yl]pyrido[2,3-d]pyrimidin-2(1H)-one], the median sotorasib tmax in data set [1] (8×120 mg tablets (Formulation #8) dispersed in water (Treatment B), single oral dose, fasted) came out at 1 h. For the same molecule, the AUC(0-inf) in data set [1] (administered as tablets (Treatment A)) was found to be 25300 ng·h/mL. This molecule returned an AUC(0-inf) in data set [1] (administered as water dispersion (Treatment B)) of 26400 ng·h/mL. Also, in data set [2] (single doses of 960 mg as tablets dispersed in water and as tablets), the Safety and tolerability entry was “safe and well tolerated; also recorded: safe and well-tolerated”. In data set [2] (single doses of 960 mg), the “Clinical laboratory evaluations, vital signs, 12-lead ECGs” value was “no clinically significant findings” and the Serious adverse events entry was “no serious adverse events”. Also, in data set [2] (single doses of 960 mg, all mild, related to sotorasib, resolved), the Treatment-emergent adverse events entry is “Three treatment-emergent adverse events of constipation, nausea and vomiting”. Further, the “applied pressure required to produce a tablet with an out of die solid fraction of 0.85” value in data set [3] is “approximately 145 MPa”. Also, in data set [4], the “Assessment of compressibility and compactibility” value was “high levels of compressibility combined with very low levels of compactibility”; the “solid fraction at a theoretical strength value of 2 MPa” value was determined as 0.85. Also, the “RTS (MPa) @ 0.85 SF” value in data set [4] (0.85 SF) came out at 1.59 MPa. Besides, in data set [4] (150 MPa), the “RTS (MPa) @ 150 MPa” value came to 1.62 MPa. For the same molecule, in data set [4] (RTS = 2 MPa), the “CP (MPa) @ RTS = 2 MPa” value is recorded as 149.00 MPa and the “SF @ RTS = 2 MPa” value worked out at 0.85. The molecule also gave a radial tensile strength in data set [4] (compressed to a peak pressure of 150 MPa) of 1.62 MPa. The molecule also came in with a radial tensile strength in data set [4] (compressed to an out of die solid fraction of 0.85) of 1.59 MPa. Further, the “phosphorylation of extracellular signal-regulated kinase (ERK)” value in data set [5] was “inhibited nearly all detectable phosphorylation”.
